Read-outs that look alike come from different tables or passages of the source.
How the values were obtained:
[1] = design: method as in Jiang et al., 2018; details: brain microdialysis; ref Jiang et al., 2018; cited from earlier work
[2] = Plasma pharmacokinetics in MCAO/R rats after iv IMM-H004 citrate; format: in vivo; details: rat, iv IMM-H004 citrate 10 mg/kg; for Tmax: iv, 10 mg/kg
Protocol: The plasma pharmacokinetics (PK) and pharmacodynamics (PD) of IMM-H004 and IMM-H004G were investigated in a cerebral ischemia-reperfusion rat model produced by middle cerebral artery occlusion/reperfusion (MCAO/R) after iv administration of IMM-H004. In brief, rats underwent a 1-h MCAO and then received IMM-H004 citrate (10 mg/kg, dissolved in saline to yield a concentration of 2 mg/ml) immediately after reperfusion, an effective dosing time as reported ([Zuo et al., 2015]; [Yang et al., 2017]). For sham surgery, all the arteries were exposed for the surgical period, but the filament was not inserted into the MCA. Blood samples were collected through external jugular vein cannula into heparinized tubes at 0.033, 0.167, 0.5, 1, 2, 4, 6, 8, 12, 24, 36, and 48 h postdose for IMM-H004 and IMM-H004G detection (50 μL of blood at each time point) and at 0.5, 1, 2, 4, 7, and 10 h postdose for malondialdehyde (MDA) detection (80 μL of blood at each time point). Plasma was immediately separated by centrifugation at 900×g for 5 min. Plasma concentrations of IMM-H004 and IMM-H004G in ischemia-reperfusion rats were determined by LC-MS/MS analysis. The PK parameters were calculated by noncompartmental analysis using WinNonlin Version 6.1 (Pharsight, Mountain View, CA). Plasma MDA concentrations in ischemia-reperfusion and sham rats within 24 h were estimated by enzyme-linked immunosorbent assay.
(§1) The LC-MS/MS system consisted of Shimadzu 30A UPLC and API 4000 triple quadruple mass spectrometer (AB SCIEX, USA). Data acquisition and analysis were accomplished using Analyst 1.5.2 software. The analytes and IS were chromatographed by injection of 1 μL sample. The mobile phases consisted of solvent A (0.5% formic acid in water) and solvent B (0.5% formic acid in methanol) at a flow rate of 0.3 ml/min on an Eclipse Plus C18 column (2.1 mm × 50 mm, 3.5 μm, Agilent, USA), and the operating temperature was 40°C. The elution condition was 10% solvent B for 0.7 min, ascending to 98% B in 2.3 min, holding for 3.0 min and reequilibrating to 10% B within 0.1 min and maintained for 2.4 min (Jiang JW, 2018). The specific transitions monitored were 305→248 for IMM-H004, 291→234 for M1, 291→248 for M2, 481→305 for IMM-H004G, 385→305 for M4, and 260→183 for IS.

PC12 cells = assay: Neuroprotection in oxygen-glucose deprivation injured PC12 cells (MTT cell viability); format: cell-based
Protocol: The neuroprotective activity of IMM-H004 and IMM-H004G was evaluated on PC12 cells damaged by oxygen-glucose deprivation (OGD). PC12 cells were purchased from the American Type Culture Collection. Cultures were maintained at 37°C in 5% CO2 in a humidified incubator. For cell viability assay, PC12 cells were incubated in 96-well plates at a density of 5 × 10^4/ml for 24 h. In the sham group, PC12 cells were cultured in Dulbecco’s modified eagle medium supplemented with 5% fetal bovine serum and 5% equine serum (Gibco, USA). In the OGD group, PC12 cells were cultured in glucose-free Earle’s balanced salt solution supplemented with 15 mM Na2S2O4 for 2 h and then incubated with compounds of nerve growth factor (NGF, 10 μM), edaravone (10 μM, 50 μM), IMM-H004 (1 μM, 10 μM), and IMM-H004G (1 μM, 10 μM), respectively. After 24 h of incubation, MTT (5 mg/ml) was added into the cell cultures and incubated for an additional 4 h. Then the supernatant was removed and 100 μL DMSO was added. Absorbance was measured using an Ultramark microplate reader at a wavelength of 562 nm. The cell viability was expressed as a percentage of the absorbance density value of control cultures.

[3] = Excretion in rat urine, bile and feces after iv IMM-H004 citrate; format: in vivo; details: iv IMM-H004 citrate 6 mg/kg
Protocol: After intravenous (iv) injection with IMM-H004 citrate (6 mg/kg, dissolved in saline to yield a concentration of 1.2 mg/ml), rats were housed individually in metabolic cages to allow separate collection of urine and feces until 72 h postdose. Additional rats were bile cannulated under light ether anesthesia. Each rat was housed individually in a metabolic cage and allowed to recover from anesthesia for 2 to 3 h. Then bile duct cannulated rats were iv injected with IMM-H004 citrate (6 mg/kg, dissolved in saline to yield a concentration of 1.2 mg/ml), bile samples were collected until 24 h postdose.
Feces samples were homogenized in 10-fold solvent of water and methanol (1:1) and diluted 10-fold in water. Bile and urine samples were diluted 100-fold in water. The concentrations of IMM-H004, M1, M2, and IMM-H004G in diluted bile, urine, and feces samples were determined by LC-MS/MS.
as §1

MCAO/R rats = assay: Neuroprotection in transient MCAO/R rats (infarct volume, neurological score); format: in vivo, rat; details: 10 mg/kg iv after reperfusion, 24 h, vs model
Source text: Transient MCAO/R was applied to compare the neuroprotection of IMM-H004 and IMM-H004G. Rats were fasted overnight with free access to water and randomly assigned to different groups. Rats were anesthetized with a mixture of 5% isoflurane and 95% oxygen and maintained with a mixture of 3% isoflurane and 97% oxygen during the surgical procedure. A 4-0 nylon thread, the tip of which was burned (diameter 0.36 mm), was inserted into the right internal carotid artery and advanced until the origin of the right MCA was occluded. After 60 min of the occlusion, the thread was withdrawn to allow reperfusion, and then the rats were returned to the chamber. Saline or edaravone at dose of 6 mg/kg or IMM-H004 citrate and IMM-H004G at dose of 10 mg/kg (dissolved in saline to yield a concentration of 2 mg/ml) were administered by intravenous injection immediately after reperfusion.
The rats were assessed for neurologic deficits at 24 h after reperfusion according to Zea Longa’s five-point scale. […] The animals without symptoms of neurological impairment or dying after the surgery were rejected. All animals were killed 24 h after reperfusion. Brains of the animals were removed and cut into 2 mm-thick slices, for a total of six slices per animal. The slices were immersed in a 2% solution of 2,3,5-triphenyltetrazolium chloride in phosphate buffered saline at 37°C for 20 min and then fixed in 4% formaldehyde overnight. Images of the slices were obtained with a scanner and a computer. The infarct area and the total area were calculated by tracing the areas on the computer screen with Image J. The percentage of the infarct volume was expressed as the infarct volumes (white parts)/the whole volume of the cortex.

[4] = tested on: primary human hepatocytes; assay: IMM-H004 metabolism by primary human hepatocytes; format: in vitro ADME; details: human hepatocytes incubated with 30 nM IMM-H004, up to 3 h
Protocol: Primary human hepatocytes were used to predict the metabolism of IMM-H004 in humans. Cryopreserved human hepatocytes were obtained from Bioreclamation IVT (Baltimore, MD, USA). Three different hepatocyte preparations (Lot CDP, ZHL, and DSX) were pooled in this study. Hepatocytes were resuspended and seeded in 96-well plates at a density of 0.7 × 10^6 cells/ml. After 24 h of culture, cells were washed with Hanks’ balanced salt solution, followed by addition of 30 nM IMM-H004 dissolved in Hanks’ balanced salt solution. Incubations were carried out at 37°C up to 3 h under gentle shaking. Cell culture supernatant was collected within 3 h and determined by LC-MS/MS. All experiments were conducted in triplicate.
as §1

[5] = tested on: recombinant human CYP450 enzymes; assay: Metabolism by cDNA-expressed human CYP450 enzymes; format: in vitro ADME; details: 1 μM IMM-H004, 50 pmol/ml CYP, 40 min
Protocol: CYP450s. IMM-H004 was incubated in triplicate with […] individual human complementary DNA (cDNA) expressed CYPs (CYP1A1, 1A2, 2A6, 2B6, 2C8, 2C9, 2C19, 2D6, 2E1, 2J2, 3A4, 4A11, 4F2, and 4F3) at 37°C. The incubation mixtures contained individual CYP450 enzymes (50 pmol/ml), IMM-H004 (1 μM), and NADPH regeneration system in a final volume of 0.2 ml Tris-HCl buffer (50 mM, pH 7.4) containing 5 mM MgCl2. The mixtures were incubated for 40 min before being quenched with two volumes of ice-cold acetonitrile containing IS (100 ng/ml). After vortex-mixing and centrifugation, M1 and M2 in the supernatant were analyzed by LC-MS/MS.

chemokine-like factor 1 = tested on: chemokine-like factor 1; design: method as in earlier work; details: ref Li et al., 2010, Kong et al., 2011, Sun et al., 2013, 2014, read-out: IC50 as antagonist of chemokine-like factor 1; cited from earlier work
cell cultures = details: not tested in this paper's methods; reference not given; cited from earlier work

AUC(0-inf) [2] [ng·h/mL] | AUC(0-t) [2] [ng·h/mL] | Cmax [2] [ng/mL] | MRT last ([2]; read-out: MRT(0-t)) [h] | MRT inf ([2]; read-out: MRT(0-∞)) [h] | half-life ([2]; read-out: t 1/2β (converted)) [h] | Tmax ([2]; read-out: T max) [h] | Tmax ([2]; read-out: time to maximum plasma concentration after dosing) [h] | recovery of IMM-H004G in bile ([3]; bile duct cannulated rats, until 24 h) | IMM-H004G in feces ([3]; rat feces) | urinary IMM-H004G recovered ([3]; rat urine, 72-h sampling period) | detection of metabolite in cell supernatant [4] | Structure (SMILES) | exposure of IMM-H004G in rat brain extracellular fluid relative to IMM-H004 [1] [fold] | cell viability of OGD-injured PC12 cells (PC12 cells; 1 and 10 μM, 24 h, MTT, vs model group) | IMM-H004 detected in PC12 cultures after incubation with IMM-H004G (PC12 cells; 24 h of incubation with IMM-H004G) | infarct volume (MCAO/R rats) | neurological test score (MCAO/R rats) | M1 formation in CYP450 enzyme incubations [5] | IC50 (chemokine-like factor 1) [µM] | neuroprotective activity in cell cultures (cell cultures)
29100 | 28900 | 13000 | 7.89 ± 0.57 | 8.16 ± 0.65 | 6.61 ± 0.86 | 0.17 | ≤ 0.25 | 75.9 % of intake | undetectable | 69.7 % of intake | could be detected | COc1cc(OC2OC(C(=O)O)C(O)C(O)C2O)cc2oc(=O)c(N3CCN(C)CC3)c(C)c12 (stereo not shown) [IMM-H004G] | 10.5 | significant (p < 0.05) preservation of viability | only trace of IMM-H004 could be detected | markedly reduced (p < 0.01) | significant improvement (p < 0.01) |  |  | 
 |  |  |  |  |  |  |  |  |  |  | not detectable | Cc1c(N2CCN(C)CC2)c(=O)oc2cc(O)cc(O)c12 [M1] |  |  |  |  |  | could not be detected in all CYP450 enzymes incubations | 0.0212 | showed neuroprotective activity in cell cultures
 |  |  |  |  |  |  |  |  |  |  | not detectable | COc1cc(O)cc2oc(=O)c(N3CCNCC3)c(C)c12 [M2] |  |  |  |  |  |  |  | 
